This passage reports IC50 and CC50 results from ChEMBL document CHEMBL1145143, “5'-Homoaristeromycin. Synthesis and antiviral activity against orthopox viruses” (Bioorg Med Chem Lett, 2005).

≈ marks a conversion by molar mass, not a printed value.

In one experiment the test system is Vaccinia virus. The experiment can be described thus: Concentration required for 50% inhibition of adohcy hydrolase by the compound against vaccinia virus in vero 76 cells. As to conditions: Orthopoxvirus vaccinia. It is filed as functional, organism-based.
Experiment [1] in a line: Concentration required for 50% inhibition of adohcy hydrolase by the compound against monkeypox virus in vero 76 cells. It is filed as functional, cell-based.
The test system of the next experiment is Cowpox virus. The experiment can be described thus: Concentration required for 50% inhibition of adohcy hydrolase by the compound against cowpox virus in vero 76 cells. Format: functional, organism-based.
The nature of experiment [2]: Cytotoxic concentration against cowpox, monkeypox and vaccinia virus in vero 76 cells. Format: functional. As to conditions: Orthopoxvirus vaccinia.

Turning to `Nc1ncnc2c1ncn2[C@@H]1C[C@H](CCO)[C@@H](O)[C@H]1O`, the IC50 (usually the point on the concentration scale where inhibition reaches its midpoint) in the experiment with Vaccinia virus was found to be 1.2 mg/L (≈ 4.3 µM); in experiment [1], 0.12 mg/L (≈ 0.43 µM); in the experiment on Cowpox virus, 0.12 mg/L (≈ 0.43 µM). Besides, the CC50 (in general, the concentration at which the toxic effect on the cells reaches its halfway point) in experiment [2] is > 100 mg/L.
